The record followed here is US8318798B2, “Therapeutic agent for neurodegenerative disease” (priority 2005, dated 2012).

In experiment [1] the target is T1, DJ-1 protein (Homo sapiens, UniProt Q99497).
T1 sequence (Q99497 1-189): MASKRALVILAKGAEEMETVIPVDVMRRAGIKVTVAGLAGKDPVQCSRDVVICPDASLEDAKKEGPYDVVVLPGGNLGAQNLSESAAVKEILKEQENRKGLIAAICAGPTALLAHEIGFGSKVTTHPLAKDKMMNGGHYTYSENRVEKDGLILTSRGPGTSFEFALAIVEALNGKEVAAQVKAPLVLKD
The experiment can be described thus: Binding to DJ-1 protein by AffinixQ quartz oscillator frequency change. The conditions noted are these: compound fixed on sensor chip; DJ-1 protein vs BSA added (FIG. 11). An excerpt:
The AffinixQ is an instrument for quantifying interaction between biomolecules at the order of nanograms by changes in frequency of the crystal oscillator. It utilizes the proportional relationship between change in frequency of the quartz oscillator and the weight of the adherings on the surface of the quartz oscillator.
The compound was fixed on top of the sensor chip, which is the oscillator, using an amino coupling reagent. The sensor chip onto which the compound had been fixed was immersed in a measurement vessel filled with 8 mL of PBS (phosphate buffer), and held until the frequency became constant. Following this, 8 μL of 1 mg/mL DJ-1 protein or BSA (bovine serum albumin) was added to the measurement vessel.

For experiment [2], the system named is mitochondrial complex 1. The experiment can be described thus: Maintenance of mitochondrial Complex 1 activity in 6-hydroxydopamine-treated SH-SY5Y cells. The class given is cell-based, human. The following applies: compound 1 μM, 24 h before 50 μM 6-hydroxydopamine, 6 h; compared with control (FIG. 13). As for the experimental part:
In this example, the effect of compounds 1, 5, and 8 in maintaining the activity of mitochondrial complex 1 was examined.
6-Hydroxydopamine induces oxidative stress by degrading the enzymic activity of Complex 1 and thereby causing a functional disorder. It is considered that the compounds identified here would suppress neuronal death due to oxidative stress by preventing deactivation of complex 1. Therefore, changes in activity of complex 1 resulting from addition of the compound was measured.
SH-SY5Y human neurons were plated onto a 10 cm dish and cultured to 80% confluency. Compounds 1, 5, and 8 individually were added at the compound concentration of 1 μM, or sterile water was added. 24 hours after the addition of the compound or sterile water, 6-hydroxydopamine (PBS solvent) was added at a 6-hydroxydopamine concentration of 50 μM, or the same amount of PBS (containing no 6-hydroxydopamine) was added. 6 hours after the addition of 6-hydroxydopamine, the cells were collected. […] After quantifying the protein, 100 μg of the mitochondrial protein was added to a cuvette filled with a reaction buffer, and the total amount was made up to 480 μL. After incubation at 37° C. for 3 minutes, 20 μL of 5 mM NADH was added to the cuvette, and decrease in absorbance at 340 nm was monitored for 4 minutes using an absorptiometer. […]

The target in experiment [3] is T1, DJ-1 protein. Description: Suppression of transition of DJ-1 to oxidized form (H2O2 treatment, isoelectric focusing). The class given is biochemical. The conditions noted are these: 0.2 mM or 2 mM H2O2, room temperature 1 hour; isoelectric focusing (FIG. 12). The procedure: In this example, it was confirmed that compound 1 and compound 5 suppressed the transition of DJ-1 to an oxidized form.
0.5 mg of purified DJ-1 protein was dissolved in 1 mL of PBS. 10 μL of 1 mM compound 1, 5, or 7 was added to 500 μL of this DJ-1 protein solution, and rotated at 4° C. for 1 hour. Subsequently, 0.4 or 4 mM hydrogen peroxide (H2O2) was added thereto, the mixture was allowed to stand at room temperature for 1 hour then the hydrogen peroxide concentration became 0.2 mM or 2 mM. Further, dialysis was carried out 3 times with PBS for a total of 4.5 hours, followed by an isoelectric focusing 0.5 μg of the DJ-1 protein . The reagents used in the isoelectric focusing were as follows. • Gel solution for isoelectric focusing: 9.2 M Urea, 2% NP-40, 4% acrylamide, 1% Ampholine (pH 5-8; Amersham Bioscience), 1% Ampholine (pH 3-10; Amersham Bioscience) • Sample Buffer: 5 M Urea, 2 M ThioUrea, 2% NP-40, 5% Glycerin, 5% 2-mercaptoethanol, 1.6% Ampholine (pH 5-8), 0.4% Ampholine (pH 3.5-10) • Protection solution: 8 M Urea, 0.8% Ampholine (pH 5-8), 0.2% • Ampholine (pH 3.5-10) • Electrophoresis Buffer+electrode: 0.02 M Phosphoric acid • −electrode: 0.02 M NaOH • Towbin: 25 mM Tris, 192 mM Glycine

In experiment [4] the test system is dopamine neurons. Description: TH staining of dopamine neurons in rat midbrain substantia nigra after 6-OHDA injection. The experiment is classed as in vivo. The conditions noted are these: 1 mM compound injected simultaneously with 6 mM 6-OHDA (FIG. 16). The procedure:
The midbrain substantia nigra (SNpc) was dissected out and fixed in a 100 mM phosphate buffer containing 4% of paraformaldehyde for 2 days, and then submerged in 100 mM phosphate buffer (containing 15% of sucrose and 0.1% of sodium azide). A 20 μm thick slices were prepared using Cryostat, and submerged in a 100 mM phosphate buffer containing 0.3% Triton X-100 (PBS-T).
These brain slices were reacted with anti-tyrosine hydroxylase (TH: a dopamine-biosynthetic enzyme and marker for dopamine neurons, manufactured by Sigma, 1:20,000 dilution) at 4° C. for 3 days, then washed, and reacted with a biotinylated anti-mouse IgG antibody (1:2,000 dilution) at room temperature for 2 hours. Subsequently, avidin peroxidase coloration was carried out using an ABC kit (Vector Laboratories) at room temperature for 1 hour. After washing several times with PBS-T, coloration was carried out by nickel ammonium-containing 3,3′-diaminobenzidine (DAB).
In the left substantia nigra into which only 6-OHDA was injected, TH staining was not observed and thus dopaminergic neuron death was observed. In the right substantia nigra, which was not injected with 6-OHDA, live dopamine neurons were observed (FIG. 16 (1)).

Experiment [5] concerns SH-SY5Y human neurons. The experiment can be described thus: Suppression of 6-hydroxydopamine-induced cell death of SH-SY5Y human neurons (Cell Counting Kit-8 / MTT assay). The class given is cell-based. The conditions noted are these: compound 1 μM, 24 h before 100 μM 6-hydroxydopamine, 40 h; compared with control (FIG. 9). As for the experimental part: In this example, the effect of compounds 1 to 8 in suppressing cell death of SH-SY5Y human neurons was examined.
SH-SY5Y human neurons ([…], USA) were plated on a 96-well plate, and cultured to 80% confluency.
Compounds 1 to 8 in sterile aqueous solutions were individually added thereto at a sample concentration of 1 μM, or sterile water was added as a control.
24 hours after the addition of compounds 1 to 8 or sterile water, 6-hydroxydopamine (PBS solvent) (Wako Pure Chemical Industries, Ltd.) was added to each at a 6-hydroxydopamine concentration of 100 μM, or the same amount of PBS (containing no 6-hydroxydopamine) was added. Furthermore, 40 hours after the addition of 6-hydroxydopamine, Cell Counting Kit-8 was added for carrying out an MTT assay.
After 3 hours, a viable cell count was measured by measuring the absorbance at wavelength of 450 nm. For each of compounds 1 to 8 and the control, the viability was obtained from ‘(the viable cell count when 6-hydroxydopamine was added)/(the viable cell count when no 6-hydroxydopamine was added)’.
Compared with the control and compounds 7 and 8, it can be seen that the addition of any one of compounds 1 to 6 enhances the viability.
(Tetrazolium assays rely on reduction of a dye to a coloured formazan, in cell work by metabolically active cells.)

In experiment [6] the test system is rats injected with 6-hydroxydopamine (6-OHDA). Description: Methamphetamine-induced rotation of rats injected with 6-OHDA into midbrain left substantia nigra. The class given is in vivo, rat. The following applies: 1 mM compound injected simultaneously with 6 mM 6-OHDA into left substantia nigra; methamphetamine after 9 weeks. The procedure: In this example, compound 1, 5, or 8 was injected into rat midbrain left substantia nigra and the effect thereof was examined. • (1) Either 6 mM of 6-hydroxydopamine (6-OHDA) alone or mixtures of 6 mM of 6-OHDA and 1 mM of each compound was injected into the midbrain left substantia nigra (4.8 mm×1.8 mm, 7.8 mm depth) of rats (Wister rat, male, 250 g). Where the rat was injected with 6 mM of 6-hydroxydopamine (6-OHDA) in midbrain left substantia nigra, the right-side substantia nigra was intact but in the left-side oxidative stress induced the death of dopamine neurons, and the rat rotate in a clockwise direction due to the imbalanced amount of acting dopamine, showing a behavioral abnormality characteristic of Parkinson's disease patients.
After 9 weeks, the rats were injected with methamphetamine (Dainippon Pharma Co., Ltd.), which causes a dopamine release, leading to a release of large amount of dopamine from dopamine neurons into the striatum. Because of the imbalance in the amounts of released dopamine between the left and right substantia nigra the rats started to rotate in a clockwise direction. The rats were placed in a rotameter, and the number of rotations was measured. The total number of rotations over 60 minutes is shown in FIG. 14, and the number of rotations at every 5 minutes over time is shown in FIG. 15. […]

`NC(=O)C(CS(N)(=O)=O)NC(=O)C(Cc1ccccc1)NC(=O)CNC(=O)OCc1ccccc1` (centres unmarked) [compound 6]: in experiment [1], the “binding to DJ-1 protein (frequency change)” value (shortened to “binding … (frequency change)”) is on record as “bind to DJ-1 protein”.

`CC(=O)O[C@H](CO)[C@H](O)C(O)Cn1cnc2c(N)ncnc21` (some centres unmarked) [compound 4]: the “binding … (frequency change)” value in experiment [1] is given as “bind to DJ-1 protein”.

With `COc1ccc(CC(=O)NCCc2cc(OC)c3c(c2)OCO3)cc1OCc1ccccc1` [compound 5], the “Complex 1 activity” value in experiment [2] is recorded as “Complex 1 activity was maintained”. Also, in experiment [3], the “transition of DJ-1 protein to an oxidized form” value was “suppressed the transition of DJ-1 protein to an oxidized form”. In addition, the “dopaminergic neuronal death in left substantia nigra (TH staining)” value (shortened to “dopaminergic neuronal death”) in experiment [4] is listed as “neuronal death was considerably suppressed”.

Regarding `CC1(C)OC2C(O1)[C@@H](CO)O[C@H]2n1cnc2c(NC(=O)C(C)(C)C)ncnc21` (some centres unmarked) [compound 7], the “viability (effect in suppressing cell death)” value in experiment [5] is “did not have such effects”.

Consider `CS(=O)(=O)O[C@H]1CO[C@@H](Cn2cnc3c(N)ncnc32)C1O` (some centres unmarked) [compound 2], for which the “binding … (frequency change)” value in experiment [1] is listed as “bind to DJ-1 protein”.

For the compound `COCO[C@@H](/C=C/C(=O)OCc1ccccc1)[C@@H](CCO[Si](C)(C)C(C)(C)C)C(Cc1ccccc1)Cc1ccccc1` [compound 8], in experiment [5], the “viability (effect in suppressing cell death)” value is recorded as “did not have such effects”. Besides, in experiment [4], the “dopaminergic neuronal death” value is reported as “did not have such effect”. In experiment [6], the “effect on behavioral abnormality (number of rotations), in words” value is recorded as “did not show such effect”.

In the case of `CC1(C)OC2C(=O)O[C@@H](n3cnc4c(N)ncnc43)C2O1` (some centres unmarked) [compound 1], the “Complex 1 activity” value in experiment [2] is reported as “Complex 1 activity was maintained”. In experiment [3], the “transition of DJ-1 protein to an oxidized form” value is recorded as “suppressed the transition of DJ-1 protein to an oxidized form”. The “dopaminergic neuronal death” value in experiment [4] is “neuronal death was considerably suppressed”. Also, the “binding … (frequency change)” value in experiment [1] is reported as “bind to DJ-1 protein”.
